Measurements taken from US20070105820A1 (priority 2005, published 2007).

How the values were obtained:
Nav1.2 = Nav1.2 (Rattus norvegicus, UniProt P04775)
NaV1.8 = NaV1.8 (Homo sapiens, UniProt Q9Y5Y9); type: cell-based
Nav1.4 and 1.5 = type: cell-based, rat
Nav1.4 = type: cell-based, Chinese Hamster
peripheral nerve injury = conditions: intravenous; concentrations that do not affect general behaviour and motor function; cited from earlier work

Sequence of Nav1.2 (P04775 whole entry, looked up): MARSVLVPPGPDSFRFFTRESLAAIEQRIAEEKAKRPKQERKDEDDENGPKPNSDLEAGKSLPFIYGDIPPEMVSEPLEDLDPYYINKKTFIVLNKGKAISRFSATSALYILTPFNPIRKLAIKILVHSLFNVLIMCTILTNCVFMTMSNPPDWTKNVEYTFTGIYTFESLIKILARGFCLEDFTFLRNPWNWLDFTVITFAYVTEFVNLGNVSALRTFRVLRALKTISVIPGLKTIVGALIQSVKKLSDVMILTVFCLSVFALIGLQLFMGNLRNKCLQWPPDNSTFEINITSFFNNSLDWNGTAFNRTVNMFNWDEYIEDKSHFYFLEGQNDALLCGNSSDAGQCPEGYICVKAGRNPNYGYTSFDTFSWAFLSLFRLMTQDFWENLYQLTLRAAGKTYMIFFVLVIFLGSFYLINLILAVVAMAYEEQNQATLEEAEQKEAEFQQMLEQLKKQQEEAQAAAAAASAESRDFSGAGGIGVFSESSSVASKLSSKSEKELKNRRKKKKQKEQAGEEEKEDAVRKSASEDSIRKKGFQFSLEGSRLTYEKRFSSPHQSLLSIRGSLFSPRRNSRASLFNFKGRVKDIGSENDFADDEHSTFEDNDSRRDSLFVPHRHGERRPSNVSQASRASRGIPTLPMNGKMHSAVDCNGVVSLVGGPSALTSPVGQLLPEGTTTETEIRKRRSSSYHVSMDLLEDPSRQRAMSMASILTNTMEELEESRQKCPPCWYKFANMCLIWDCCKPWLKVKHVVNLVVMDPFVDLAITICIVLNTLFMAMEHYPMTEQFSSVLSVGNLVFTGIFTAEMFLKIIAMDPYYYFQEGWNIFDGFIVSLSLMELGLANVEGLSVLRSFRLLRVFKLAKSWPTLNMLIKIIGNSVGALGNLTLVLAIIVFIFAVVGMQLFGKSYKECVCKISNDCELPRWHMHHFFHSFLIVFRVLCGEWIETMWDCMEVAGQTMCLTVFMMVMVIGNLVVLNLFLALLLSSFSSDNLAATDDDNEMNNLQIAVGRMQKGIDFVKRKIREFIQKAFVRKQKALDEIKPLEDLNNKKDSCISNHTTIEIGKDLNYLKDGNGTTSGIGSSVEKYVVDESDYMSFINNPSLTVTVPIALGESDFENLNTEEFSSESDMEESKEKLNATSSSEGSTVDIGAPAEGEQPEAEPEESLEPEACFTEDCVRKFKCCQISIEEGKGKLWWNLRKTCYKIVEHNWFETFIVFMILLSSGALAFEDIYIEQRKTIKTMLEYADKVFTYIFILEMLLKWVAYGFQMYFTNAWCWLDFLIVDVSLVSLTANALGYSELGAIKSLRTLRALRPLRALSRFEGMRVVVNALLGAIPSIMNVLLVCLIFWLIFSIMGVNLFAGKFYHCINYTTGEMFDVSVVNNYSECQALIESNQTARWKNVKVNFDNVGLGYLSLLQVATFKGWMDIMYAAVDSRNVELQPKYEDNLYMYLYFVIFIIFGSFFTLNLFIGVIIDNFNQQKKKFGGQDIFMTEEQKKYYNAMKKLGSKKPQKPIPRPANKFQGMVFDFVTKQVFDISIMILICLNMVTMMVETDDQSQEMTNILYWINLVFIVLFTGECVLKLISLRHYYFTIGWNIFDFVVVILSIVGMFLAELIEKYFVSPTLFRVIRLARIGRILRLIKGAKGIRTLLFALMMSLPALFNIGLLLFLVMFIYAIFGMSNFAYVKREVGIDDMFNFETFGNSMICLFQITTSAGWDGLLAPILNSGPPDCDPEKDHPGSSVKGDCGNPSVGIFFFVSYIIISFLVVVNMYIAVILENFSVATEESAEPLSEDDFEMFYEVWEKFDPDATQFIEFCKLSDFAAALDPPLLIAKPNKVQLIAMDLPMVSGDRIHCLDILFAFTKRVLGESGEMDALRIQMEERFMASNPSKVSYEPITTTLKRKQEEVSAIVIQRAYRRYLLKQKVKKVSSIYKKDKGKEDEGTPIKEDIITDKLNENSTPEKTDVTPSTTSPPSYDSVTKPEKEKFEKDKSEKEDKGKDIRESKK
Sequence of NaV1.8 (Q9Y5Y9 whole entry, looked up): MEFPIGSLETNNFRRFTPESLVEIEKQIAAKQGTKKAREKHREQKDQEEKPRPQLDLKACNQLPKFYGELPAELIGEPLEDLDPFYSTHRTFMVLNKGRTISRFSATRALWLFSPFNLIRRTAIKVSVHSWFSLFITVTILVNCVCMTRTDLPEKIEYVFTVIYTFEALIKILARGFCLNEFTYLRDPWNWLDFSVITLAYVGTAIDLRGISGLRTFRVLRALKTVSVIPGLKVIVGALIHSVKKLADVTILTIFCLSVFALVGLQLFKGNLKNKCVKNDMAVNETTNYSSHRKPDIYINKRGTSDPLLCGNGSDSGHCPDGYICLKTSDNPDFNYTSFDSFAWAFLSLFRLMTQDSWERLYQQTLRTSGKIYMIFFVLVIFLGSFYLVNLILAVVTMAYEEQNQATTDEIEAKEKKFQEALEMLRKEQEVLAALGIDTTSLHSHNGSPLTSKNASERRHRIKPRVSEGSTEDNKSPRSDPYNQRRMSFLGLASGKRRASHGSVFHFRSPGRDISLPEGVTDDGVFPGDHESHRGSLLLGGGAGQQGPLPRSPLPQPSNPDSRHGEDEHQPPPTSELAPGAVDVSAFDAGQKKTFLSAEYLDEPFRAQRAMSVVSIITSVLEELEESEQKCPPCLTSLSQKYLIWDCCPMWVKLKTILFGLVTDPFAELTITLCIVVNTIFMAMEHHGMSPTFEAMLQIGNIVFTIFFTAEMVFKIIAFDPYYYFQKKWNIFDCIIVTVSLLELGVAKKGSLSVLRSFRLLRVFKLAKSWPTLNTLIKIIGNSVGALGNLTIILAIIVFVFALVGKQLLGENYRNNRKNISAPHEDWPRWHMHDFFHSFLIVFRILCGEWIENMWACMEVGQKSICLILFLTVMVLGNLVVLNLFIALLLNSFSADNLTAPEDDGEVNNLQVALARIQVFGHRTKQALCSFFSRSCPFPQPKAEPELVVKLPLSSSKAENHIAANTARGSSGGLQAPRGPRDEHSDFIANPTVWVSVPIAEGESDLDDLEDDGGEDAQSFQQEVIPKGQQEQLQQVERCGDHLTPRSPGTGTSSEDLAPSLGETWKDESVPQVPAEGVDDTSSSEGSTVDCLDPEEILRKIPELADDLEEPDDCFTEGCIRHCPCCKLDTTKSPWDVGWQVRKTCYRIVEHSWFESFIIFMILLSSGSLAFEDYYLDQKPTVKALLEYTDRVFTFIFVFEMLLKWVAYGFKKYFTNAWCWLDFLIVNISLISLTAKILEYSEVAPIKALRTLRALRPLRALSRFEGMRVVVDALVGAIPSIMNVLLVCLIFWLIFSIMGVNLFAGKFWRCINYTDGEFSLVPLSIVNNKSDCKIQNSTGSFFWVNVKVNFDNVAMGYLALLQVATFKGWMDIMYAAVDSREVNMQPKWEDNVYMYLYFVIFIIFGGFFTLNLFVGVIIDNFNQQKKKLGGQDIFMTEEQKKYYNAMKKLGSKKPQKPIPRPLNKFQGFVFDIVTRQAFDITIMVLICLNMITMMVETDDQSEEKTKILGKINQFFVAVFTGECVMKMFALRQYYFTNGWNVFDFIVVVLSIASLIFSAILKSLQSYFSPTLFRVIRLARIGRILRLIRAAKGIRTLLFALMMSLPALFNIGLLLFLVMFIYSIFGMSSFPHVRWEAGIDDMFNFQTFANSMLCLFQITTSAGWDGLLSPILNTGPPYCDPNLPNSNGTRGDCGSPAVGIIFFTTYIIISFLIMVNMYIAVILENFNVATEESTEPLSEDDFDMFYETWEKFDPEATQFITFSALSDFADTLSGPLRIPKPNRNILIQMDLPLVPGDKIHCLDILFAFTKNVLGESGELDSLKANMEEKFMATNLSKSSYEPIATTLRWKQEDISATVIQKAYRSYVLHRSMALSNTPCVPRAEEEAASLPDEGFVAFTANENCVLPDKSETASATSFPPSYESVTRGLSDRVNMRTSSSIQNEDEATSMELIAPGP

Structure (SMILES)	melting point	also measured
O=C(CC1(O)C(=O)N(CCc2ccc(Cl)cc2)c2ccccc21)c1ccco1 (centres unmarked)	128 to 132 °C	–
CCCCCN1C(=O)C(c2ccc3c(c2)OCO3)c2c(Cl)ccc(Cl)c21 (centres unmarked)	84 to 86 °C	–
CCCCCN1C(=O)C(c2ccc3c(c2)OCO3)c2cccc(F)c21 (centres unmarked)	95 to 97 °C	–
O=C1C(c2ccc3c(c2)OCO3)c2ccccc2N1Cc1ccc(Cl)cc1 (centres unmarked)	161 to 163 °C	–
CCCCCN1C(=O)C(c2ccc3c(c2)OCO3)c2cc(C)cc(C)c21 (centres unmarked)	111 to 114 °C	–
O=C1C(c2ccc3c(c2)OCO3)c2ccccc2N1CCC1CC1 (centres unmarked)	87 to 89 °C	–
CCCCCN1C(=O)C(c2cc3c(cc2O)OCO3)c2ccccc21 (centres unmarked)	101 to 103 °C	–
O=C(CC1(O)C(=O)N(Cc2ccc(Cl)cc2)c2ccccc21)c1ccc[nH]1 (centres unmarked)	202 °C (dec.)	–
CCCCCN1C(=O)C(c2ccc3c(c2)OCO3)(c2cc3c(cc2O)OCO3)c2ccccc21 (centres unmarked)	75 to 76 °C	–
CCCCCN1C(=O)C(NC(=O)OC(C)(C)C)c2ccccc21 (centres unmarked)	145 to 147 °C	–
CCCCCN1C(=O)C(N)(CC(=O)c2cccs2)c2ccccc21 (centres unmarked)	167 to 169 °C	–
CCCCCN1C(=O)C(CO)(c2cc3c(cc2O)OCO3)c2ccccc21 (centres unmarked)	125 to 127 °C	–
Cc1ccc2c(c1)C(O)(CC(=O)c1ccco1)C(=O)N2Cc1ccc(Cl)cc1 (centres unmarked)	183 to 185 °C	–
O=C(CC1(O)C(=O)N(Cc2ccc(Cl)cc2)c2ccccc21)c1cc2ccccc2o1 (centres unmarked)	185 °C (dec.)	–
O=C(CC1(O)C(=O)N(Cc2ccc3c(c2)OCO3)c2ccccc21)c1ccco1 (centres unmarked)	175 to 177 °C	–
O=C(CC1(O)C(=O)N(Cc2ccc3c(c2)OCO3)c2ccccc21)c1cccs1 (centres unmarked)	186 to 187 °C	–
O=C1N(CC2CC2)c2ccccc2C1(O)c1ccc2c(c1)OCO2 (centres unmarked)	142 to 145 °C	–
O=C1N(Cc2ccccn2)c2cccc(Br)c2C1(O)c1cc2c(cc1O)OCC2 (centres unmarked)	> 225 °C	–
CC(c1ccccc1)N1C(=O)C(O)(c2ccc3c(c2)OCO3)c2ccccc21 (centres unmarked)	148 to 150 °C	–
O=C1N(Cc2ccc(C(F)(F)F)o2)c2ccc(F)cc2C1(CO)c1cc2c(cc1O)OCO2 (centres unmarked)	92 to 95 °C	–
O=C1N(Cc2ccc(Cl)cc2)c2ccc(OC(F)(F)F)cc2C1(O)c1ccc2c(c1)OCO2 (centres unmarked)	138 to 140 °C	–
O=C1N(Cc2ccc(-n3cccc3)cc2)c2ccccc2C1(O)c1ccc2c(c1)OCO2 (centres unmarked)	195 to 198 °C	–
CCCCCN1C(=O)C(O)(c2ccc3c(c2)OCO3)c2cccc(-c3ccc(F)cc3)c21 (centres unmarked)	149 to 151 °C	–
O=C1N(CCCC(F)(F)F)c2ccccc2C1(O)c1ccc2c(c1)OCO2 (centres unmarked)	119 to 121 °C	–

Structure (SMILES)	melting point	also measured
O=C1N(Cc2ccc(Cl)cc2)c2ccccc2C1(O)c1cc(OCc2ccccc2)ccc1O (centres unmarked)	172 to 175 °C	–
O=C1N(CCCCCCl)c2ccccc2C1(O)c1ccc2c(c1)OCO2 (centres unmarked)	131 to 132 °C	–
O=C1Nc2c(-c3ccc4c(c3)OCO4)cccc2C1(O)c1ccc2c(c1)OCO2 (centres unmarked)	112 to 115 °C	–
O=C(CC1(O)C(=O)N(Cc2ccc(Cl)cc2)c2ccccc21)c1ccc(F)cc1 (centres unmarked)	156 to 160 °C	–
CCCCCN1C(=O)C(O)(c2ccc3c(c2)OCO3)c2cc(C)cc(C)c21 (centres unmarked)	120 to 121 °C	–
CCCCC(C)N1C(=O)C(O)(c2ccc3c(c2)OCO3)c2ccccc21 (centres unmarked)	152 to 154 °C	–
O=C1N(Cc2ccc(Cl)cc2)c2ccc(Br)cc2C1(O)c1ccc2c(c1)OCO2 (centres unmarked)	179 to 180 °C	–
O=C1N(Cc2ccc(Cl)cc2)c2ccc(F)cc2C1(O)c1ccc2c(c1)OCO2 (centres unmarked)	145 to 147 °C	–
O=C1N(Cc2ccc(Cl)cc2)c2ccccc2C1(O)CC1OCCO1 (centres unmarked)	166 to 169 °C	–
O=C(CC1(O)C(=O)N(Cc2ccc(Cl)cc2)c2ccccc21)c1ccccn1 (centres unmarked)	185 °C (dec.)	–
O=C(c1ccc(Cl)cc1)N1C(=O)C(O)(c2ccccc2)c2ccccc21 (centres unmarked)	141 to 143 °C	–
CCCCCN1C(=O)C(O)(c2ccc3c(c2)OCO3)c2cccc(F)c21 (centres unmarked)	102 to 104 °C	–
O=C1N(Cc2cc3c(cc2Cl)OCO3)c2ccccc2C1(O)c1ccc2c(c1)OCO2 (centres unmarked)	153 to 155 °C	–
O=C1N(Cc2cccs2)c2ccccc2C1(O)c1ccc2c(c1)OCO2 (centres unmarked)	141 to 142 °C	–
COc1ccccc1CN1C(=O)C(O)(c2ccc3c(c2)OCO3)c2ccccc21 (centres unmarked)	148 to 150 °C	–
O=C1N(Cc2cccc3ccccc23)c2ccccc2C1(O)c1ccc2c(c1)OCO2 (centres unmarked)	93 to 95 °C	–
O=C1N(Cc2cccc(C(F)(F)F)c2)c2ccccc2C1(O)c1ccc2c(c1)OCO2 (centres unmarked)	133 to 135 °C	–
COc1ccc2c(c1)C(O)(c1ccc3c(c1)OCO3)C(=O)N2Cc1ccc(F)cc1 (centres unmarked)	127 to 129 °C	–
O=C1N(Cc2ccc(Cl)c(C(F)(F)F)c2)c2ccccc2C1(O)c1ccc2c(c1)OCO2 (centres unmarked)	133 to 135 °C	–
O=C1N(Cc2ccc(Cl)s2)c2ccccc2C1(O)c1ccc2c(c1)OCO2 (centres unmarked)	164 to 165 °C	–
CC(C)CCN1C(=O)C(O)(c2ccc3c(c2)OCO3)c2ccccc21 (centres unmarked)	129 to 131 °C	–
CCCCCCN1C(=O)C(O)(c2ccc3c(c2)OCO3)c2ccccc21 (centres unmarked)	88 to 90 °C	–
O=C1N(Cc2cccc3cccnc23)c2ccccc2C1(O)c1ccc2c(c1)OCO2 (centres unmarked)	187 to 189 °C	–
CCCCCC1(O)C(=O)N(c2ccc3c(c2)OCO3)c2ccccc21 (centres unmarked)	88 to 90 °C	–

Structure (SMILES)	melting point	also measured
CCCCCN1C(=O)C(O)(c2ccc3c(c2)OCO3)c2c(Cl)ccc(Cl)c21 (centres unmarked)	82 to 84 °C	–
O=C1N(CCC2CC2)c2ccccc2C1(O)c1ccc2c(c1)OCO2 (centres unmarked)	110 to 112 °C	–
CCCCCN1C(=O)C(O)(c2ccc3c(c2)OCO3)c2ccc(Cl)cc21 (centres unmarked)	103 to 105 °C	–
CCCCCN1C(=O)C(O)(c2ccc3c(c2)OCO3)c2cccc(C(F)(F)F)c21 (centres unmarked)	115 to 117 °C	–
O=C1N(Cc2ccccc2I)c2ccccc2C1(O)c1ccc2c(c1)OCO2 (centres unmarked)	130 to 132 °C	–
O=C(CC1(O)C(=O)N(c2ccc(F)cc2)c2ccccc21)c1ccco1 (centres unmarked)	185 °C (dec.)	–
COc1ccc(C2(O)C(=O)N(Cc3ccc(Cl)cc3)c3ccccc32)cc1OC (centres unmarked)	155 to 158 °C	–
CCCCCN1C(=O)C(O)(c2ccc3c(c2)OCO3)c2c(Cl)cccc21 (centres unmarked)	140 to 142 °C	–
COc1ccc(C2(O)C(=O)N(Cc3ccc(Cl)cc3)c3ccccc32)cn1 (centres unmarked)	182 to 184 °C	–
O=C1N(Cc2ccc(Cl)cc2)c2ccccc2C1(O)c1ccc2c(c1)OCCCO2 (centres unmarked)	188 to 190 °C	–
O=C1N(Cc2ccc(Cl)cc2)c2ccccc2C1(O)c1cncnc1 (centres unmarked)	155 to 157 °C	–
O=C1N(Cc2ccc(Cl)cc2)c2ccccc2C1(O)c1ccc2ncsc2c1 (centres unmarked)	185 to 187 °C	–
O=C1c2ccccc2CC1C1(O)C(=O)N(Cc2ccc(Cl)cc2)c2ccccc21 (centres unmarked)	154 to 157 °C	–
O=C1N(Cc2ccc3c(c2)OCO3)c2ccccc2C1(O)c1ccc2ccoc2c1 (centres unmarked)	> 200 °C	–
O=C1N(Cc2ccc(Cl)cc2)c2ccccc2C1(O)c1ccc2ccoc2c1 (centres unmarked)	> 200 °C (dec.)	–
CCCCCN1C(=O)C(O)(c2ccc3ocnc3c2)c2ccccc21 (centres unmarked)	189 to 191 °C	–
O=C1N(Cc2ccc(Cl)cc2)c2ccccc2C1(O)c1ccc2c(c1)OC(F)(F)O2 (centres unmarked)	150 to 152 °C	–
COc1ccc(CN2C(=O)C(O)(c3ccc4c(c3)OC(F)(F)O4)c3ccccc32)cc1 (centres unmarked)	88 to 90 °C	–
CCCCCN1C(=O)C(O)(c2cc3c(cc2CO)OCO3)c2ccccc21 (centres unmarked)	120 to 122 °C	–
O=C1N(Cc2ccc(Cl)cc2)c2ccccc2C1(O)C#Cc1ccc(F)cc1 (centres unmarked)	153 to 154 °C	–
NC1=N[C@H](O)[C@H]2[C@H]3O[C@]4(O)O[C@@H]([C@@H](O)[C@@]2(N1)[C@@H]4O)[C@]3(O)CO [TTX, tetrodotoxin]	–	block of [14C] Guanidine influx by TTX (Nav1.2): Guanidine influx was completely; block of [14C] Guanidine influx by TTX (NaV1.8): TTX partially blocked influx; block of [14C] Guanidine influx by TTX (Nav1.4 and 1.5): partially blocked by TTX (Nav1.5; block of [14C] Guanidine influx by TTX (Nav1.4): Guanidine influx was completely
CCN(CC)CC(=O)Nc1c(C)cccc1C [lidocaine]	–	effect on ectopic activity in the injured nerve (peripheral nerve injury): suppress the ectopic activity; effect on tactile allodynia (peripheral nerve injury): reverse the tactile allodynia
